PubChem BioAssay (NCI)
Values joined by “and” are separate entries in the source; they are usually repeats but may differ in a detail not shown here. Equal entries are not always repeated.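 Compound exposure: 48 hours, 5 concentrations, 96-well plates. GI50 is the concentration that inhibits growth by half. Definition used: TGI = concentration required for complete inhibition of growth.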 *1 amine or outer side, *2 acyl side, *3 side chain or, on linkers, in order; H or OH if unused. Where a SMILES comes first, the peptide text is derived from it. [ ]: non-standard residue; d: D form. X56 = CC[C@H](C)[C@H](OC(=O)[C@@H](C)[C@@H](CC)N[*:1])C(=O)[*:2]; X32 = C[C@H](N[*:1])C(=O)C(C)(C)C(=O)[*:2]; NMeY = CN[C@@H](Cc1ccc(O)cc1)C(=O)O; NMeL = CN[C@@H](CC(C)C)C(=O)O; NMeV = CN[C@H](C(=O)O)C(C)C

Key:
Experiment in all cases: DTP human tumour cell line panel, 48 h
ACHN renal = system: ACHN renal
CCRF-CEM leukemia = system: CCRF-CEM leukemia
EKVX NSCLC = system: EKVX NSCLC
HT29 colon = system: HT29 colon
M14 melanoma = system: M14 melanoma
NCI-H23 lung = system: NCI-H23 lung
OVCAR-5 ovarian = system: OVCAR-5 ovarian
SF-268 CNS = system: SF-268 CNS
SF-295 CNS = system: SF-295 CNS
SK-MEL-5 melanoma = system: SK-MEL-5 melanoma

| SMILES | TGI (ACHN renal) | TGI (CCRF-CEM leukemia) [µM] | TGI (EKVX NSCLC) | TGI (HT29 colon) [µM] | TGI (M14 melanoma) | TGI (NCI-H23 lung) [µM] | TGI (OVCAR-5 ovarian) [µM] | TGI (SF-268 CNS) [µM] | TGI (SF-295 CNS) | TGI (SK-MEL-5 melanoma) | GI50 (ACHN renal) [µM] | GI50 (CCRF-CEM leukemia) [µM] | GI50 (EKVX NSCLC) [µM] | GI50 (HT29 colon) [µM] | GI50 (M14 melanoma) [µM] | GI50 (NCI-H23 lung) [µM] | GI50 (OVCAR-5 ovarian) [µM] | GI50 (SF-268 CNS) [µM] | GI50 (SF-295 CNS) [µM] | GI50 (SK-MEL-5 melanoma) [µM] |
| --- | --- | --- | --- | --- | --- | --- | --- | --- | --- | --- | --- | --- | --- | --- | --- | --- | --- | --- | --- | --- |
| NNC(=O)/C(NC(=O)c1ccccc1)=C(\N)c1ccc(Cl)cc1 | > 100 µM | > 100 | > 100 µM | > 100 | > 100 µM | > 100 | > 100 | > 100 | > 100 µM | > 100 µM |  |  |  |  |  |  |  |  |  |  |
| C=C1C(=O)O[C@H]2[C@H]1CC/C(COC(=O)c1ccccc1)=C\CC[C@@]1(C)O[C@@H]21 | 2.86 µM | 1.3 | 4.46 µM | 2.1 | 3.27 µM | 4.16 | 5.36 | 3.47 | 16 µM | 3.03 µM | 1.37 | 0.281 | 1.85 | 0.412 | 1.32 | 1.82 | 2 | 1.56 | 3.83 | 1.63 |
| COc1cc2c(cn1)[nH]c1ccccc12 | > 100 µM | > 100 | > 100 µM | > 100 | > 100 µM | > 100 | > 100 | > 100 | > 100 µM | > 100 µM |  |  |  |  |  |  |  |  |  |  |
| O=C(O)C1CCCCC1c1c2ccc(=O)cc-2oc2cc(O)ccc12 (stereo unspecified) | > 100 µM | > 100 | > 100 µM | > 100 | 78.6 µM | > 100 | > 100 | > 100 | > 100 µM | > 100 µM |  |  |  |  |  |  |  |  |  |  |
| O=C(COc1cccc(/C=C2\CSc3ccccc3C2=O)c1)c1ccc(Cl)cc1 | 3.5 µM |  | 17.5 µM | 2.9 | 3.09 µM | 4.15 | 4.08 | 5.2 | 3.44 µM | 3.41 µM | 1.78 | 0.325 | 7.45 | 1.43 | 1.63 | 1.92 | 1.85 | 2.16 | 1.71 | 1.8 |
| CC(C)c1ccc(NC(=S)NC(=O)c2ccccc2)cc1 | 55.9 µM | 49.6 | > 100 µM | 32.4 | 40.7 µM | 68 | > 100 | 46.4 | 32.5 µM | 27 µM |  |  |  |  |  |  |  |  |  |  |
| COc1cc(Nc2nc3ccc(C(F)(F)F)cc3nc2-c2ccccc2)cc(OC)c1OC | > 100 µM | > 100 | 79.7 µM | 5.31 | > 100 µM | > 100 | 53.1 | > 100 | 11.6 µM | 59.4 µM |  |  |  |  |  |  |  |  |  |  |
| NC1=Nc2cc(OCCCN3Cc4ccccc4C3)c(OCC3CC3)cc2C12CCCC2 | 11.9 µM | 9.26 | 11.8 µM | 6.53 | 3.47 µM | 12.9 | 19.1 | 16.9 | 3.42 µM | 3.04 µM | 3.44 | 2.45 | 3.18 | 1.95 | 1.85 | 3.61 | 5.99 | 3.79 | 1.64 | 1.67 |
| CC[C@H](C)[C@@H]1OC(=O)[C@@H](C)[C@@H](CC)NC(=O)[C@H](C)NC(=O)C(C)(C)C(=O)[C@H](C)NC(=O)[C@H](Cc2ccc(OC)cc2)N(C)C(=O)[C@H](C(C)C)N(C)C(=O)CNC(=O)[C@H](CC(C)C)N(C)C(=O)CNC1=O (cyclo(A[X56]G[NMeL]G[NMeV][NMeY](Me)[X32])) | 0.332 µM and 0.0908 µM |  | 1.82 µM and 8.44 µM | 13.2 | 2.02 µM and 0.786 µM | 3.66 | > 100 |  | 0.657 µM and 0.0793 µM | 0.173 µM and 0.462 µM | < 0.0165 | < 0.0152 | 0.0668 |  | 0.0403 | 0.367 | 0.349 | < 0.0161 | 0.0102 | 0.135 |
| Cc1c(N=Cc2ccc(N(CCC#N)CCC#N)cc2)c(=O)n(-c2ccccc2)n1C | 69.1 µM | > 100 | > 100 µM | > 100 | > 100 µM | > 100 | > 100 | > 100 | 71.6 µM | > 100 µM |  |  |  |  |  |  |  |  |  |  |
| Cc1ccc(Sc2sc(-c3ccccc3)nc2[P+](c2ccccc2)(c2ccccc2)c2ccccc2)cc1 | 0.933 µM | 2 | 0.932 µM | 1.17 | 1.3 µM | 0.811 | 1.45 | 1.43 | 0.722 µM | 0.313 µM | 0.268 | 0.373 | 0.266 | 0.237 | 0.326 | 0.27 | 0.4 | 0.366 | 0.243 | 0.172 |
| COc1cc(/C=C(\OC(C)=O)c2ccc3c(c2)OCO3)cc(OC)c1OC | 69.3 µM | > 100 | 54.9 µM | 61.9 | 39.4 µM | 35.4 | > 100 | 67.5 | 98.6 µM | 24.5 µM |  |  |  |  |  |  |  |  |  |  |
| C=C1C[C@@]2(C)C(CC[C@]3(C)C2CC=C2C4CC(C)(C)C[C@@H](OC(=O)/C(C)=C\C)[C@]4(C(=O)O)CC[C@]23C)C(C)(C)C1=O (stereo partly specified) | 4.12 µM | 22.9 | 19 µM | 6.81 | 8.49 µM | 11.1 | 10.3 | 28 | 11.1 µM | 11.2 µM | 2.04 | 2.11 | 4.95 | 2.55 | 2.39 | 2.87 | 3.17 | 6.76 | 2.95 | 3.35 |
| O=C(CC1C=CCS1(=O)=O)NCc1ccccc1 (stereo unspecified) | > 100 µM | > 100 | > 100 µM | > 100 | > 100 µM | > 100 | > 100 | > 100 | > 100 µM | > 100 µM |  |  |  |  |  |  |  |  |  |  |
| CC(=O)OC1Oc2ccccc2-c2oc(=O)c(-c3cc4ccccc4oc3=O)cc21 (stereo unspecified) | 29.6 µM | 54.2 | 74.6 µM | > 100 | > 100 µM | 52.4 | > 100 | 40.9 | 41.3 µM | 57.8 µM | 14.1 | 23.2 | 26.4 | 33 | 36.6 | 24 | 35 | 19.6 | 18.6 | 24.8 |
| Cc1cc(N(CCCl)CCCl)ccc1/C=N/NC(=O)Cc1cc(=O)oc2cc(O)ccc12 | 40.3 µM | 46 | 82.9 µM | 31.2 | 35.1 µM | 58.6 | 93.7 | 56.4 | 50.8 µM | 21.1 µM |  |  |  |  |  |  |  |  |  |  |
